Drawing on patent publication US6686355B2, “Biphenyl sulfonamides useful as matrix metalloproteinase inhibitors” (Warner-Lambert Company, priority 2001, dated 2004), this text covers IC50 for 19 compounds.

Assay type in all cases: biochemical
In assay [1] the target is MMP-9FL (full length Gelatinase B) (Homo sapiens, UniProt P14780). Kind of assay: Thiopeptolide hydrolysis assay, MMP-9FL. The following applies: thiopeptolide substrate, HEPES pH 7.0, 22° C. The source says: (§1) The assays measure the amount by which a test compound reduces the hydrolysis of a thiopeptolide substrate catalyzed by a matrix metalloproteinase enzyme. Such assays are described in detail by Ye et al., in Biochemistry, 1992;31(45):11231-11235, which is incorporated herein by reference.
(§2) Thiopeptolide substrates show virtually no decomposition or hydrolysis at or below neutral pH in the absence of a matrix metalloproteinase enzyme. A typical thiopeptolide substrate commonly utilized for assays is Ac-Pro-Leu-Gly-thioester-Leu-Leu-Gly-OEt. A 100 μL assay mixture will contain 50 mM of N-2-hydroxyethylpiperazine-N′-2-ethanesulfonic acid buffer (“HEPES”) at pH 7.0, 10 mM CaCl2, 100 μM thiopeptolide substrate, and 1 mM 5,5″-dithio-bis-(2-nitro-benzoic acid) (DTNB). The thiopeptolide substrate concentration may be varied from, for example, 10 to 800 μM to obtain Km and Kcat values. The change in absorbance at 405 nm is monitored on a Thermo Max microplate reader (Molecular Devices, Menlo Park, Calif.) at room temperature (22° C.). The calculation of the amount of hydrolysis of the thiopeptolide substrate is based on E412=13600 M^−1 cm^−1 for the DTNB-derived product 3-carboxy4-nitrothiophenoxide. Assays are carried out with and without matrix metalloproteinase inhibitor compounds, and the amount of hydrolysis is compared for a determination of inhibitory activity of the test compounds.
(§3) Several representative compounds have been evaluated for their ability to inhibit various matrix metalloproteinase enzymes. In Table I, MMP-1FL refers to full length interstitial collagenase; MMP-2FL refers to full length Gelatinase A; MMP-3CD refers to the catalytic domain of stromelysin-1; MMP-7FL refers to full length matrilysin; MMP-9FL refers to full length Gelatinase B; MMP-13CD refers to the catalytic domain of collagenase 3; and MMP-14CD refers to the catalytic domain of MMP-14. Test compounds were evaluated at various concentrations in order to determine their respective IC50 values, the micromolar concentration of compound required to cause a 50% inhibition of the catalytic activity of the respective enzyme.

Assay [2] deals with T1, MMP-2FL (full length Gelatinase A) (Homo sapiens, UniProt P08253).
T1 sequence (P08253 110-660): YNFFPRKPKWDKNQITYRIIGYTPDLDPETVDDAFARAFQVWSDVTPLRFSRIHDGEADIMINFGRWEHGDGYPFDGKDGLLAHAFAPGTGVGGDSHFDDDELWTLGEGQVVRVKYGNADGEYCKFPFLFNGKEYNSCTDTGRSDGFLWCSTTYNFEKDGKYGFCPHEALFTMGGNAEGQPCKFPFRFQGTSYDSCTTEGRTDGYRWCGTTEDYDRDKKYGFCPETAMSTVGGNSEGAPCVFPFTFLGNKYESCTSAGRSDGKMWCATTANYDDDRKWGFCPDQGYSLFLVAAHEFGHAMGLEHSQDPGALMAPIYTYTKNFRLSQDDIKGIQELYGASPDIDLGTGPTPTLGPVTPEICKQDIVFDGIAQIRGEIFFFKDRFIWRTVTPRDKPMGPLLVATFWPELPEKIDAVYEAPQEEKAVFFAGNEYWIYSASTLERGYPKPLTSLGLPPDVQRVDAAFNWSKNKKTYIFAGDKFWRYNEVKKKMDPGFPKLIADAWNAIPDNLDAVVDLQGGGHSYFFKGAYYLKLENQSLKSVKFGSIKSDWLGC
Kind of assay: Thiopeptolide hydrolysis assay, MMP-2FL. The settings on record: thiopeptolide substrate, HEPES pH 7.0, 22° C.
From the text: as §1, §2, §3

Assay [3] addresses MMP-3CD (catalytic domain of stromelysin-1) (Homo sapiens, UniProt P08254). The experiment in a line: Thiopeptolide hydrolysis assay, MMP-3CD. The following applies: thiopeptolide substrate, MES pH 6.0.
From the text: as §1, §2, §3
It should be appreciated that the assay buffer used with MMP-3CD was 50 mM of 2-morpholinoethanesulfonic acid monohydrate (“MES”) at pH 6.0 rather than the HEPES buffer at pH 7.0 described above.

Assay [4] concerns the target MMP-13CD (catalytic domain of collagenase 3) (Homo sapiens, UniProt P45452). The experiment in a line: Thiopeptolide hydrolysis assay, MMP-13CD. The settings on record: thiopeptolide substrate, HEPES pH 7.0, 22° C.
From the text: as §1, §2, §3

SMILES strings stand for the structures.

The IC50 is the midpoint of a concentration-inhibition curve.

MMP-9FL (full length Gelatinase B), sequence (P14780 94-707, species assumed): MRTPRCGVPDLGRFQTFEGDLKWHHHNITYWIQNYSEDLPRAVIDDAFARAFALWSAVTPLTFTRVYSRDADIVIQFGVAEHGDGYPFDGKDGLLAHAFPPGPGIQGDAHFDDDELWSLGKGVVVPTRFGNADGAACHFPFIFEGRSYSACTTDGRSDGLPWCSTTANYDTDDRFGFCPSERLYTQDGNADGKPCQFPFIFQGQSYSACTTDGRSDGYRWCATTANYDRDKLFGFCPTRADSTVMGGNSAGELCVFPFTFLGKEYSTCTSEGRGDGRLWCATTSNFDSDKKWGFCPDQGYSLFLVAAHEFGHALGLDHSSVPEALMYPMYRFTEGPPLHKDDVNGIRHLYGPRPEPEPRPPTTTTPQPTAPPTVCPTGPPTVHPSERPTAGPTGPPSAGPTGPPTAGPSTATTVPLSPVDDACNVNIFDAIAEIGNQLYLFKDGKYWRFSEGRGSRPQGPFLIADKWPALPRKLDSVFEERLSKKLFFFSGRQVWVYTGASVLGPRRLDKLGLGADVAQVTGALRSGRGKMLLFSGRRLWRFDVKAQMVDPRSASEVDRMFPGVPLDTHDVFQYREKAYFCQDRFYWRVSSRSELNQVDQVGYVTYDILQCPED
MMP-3CD (catalytic domain of stromelysin-1), sequence (P08254 100-272 limits assumed): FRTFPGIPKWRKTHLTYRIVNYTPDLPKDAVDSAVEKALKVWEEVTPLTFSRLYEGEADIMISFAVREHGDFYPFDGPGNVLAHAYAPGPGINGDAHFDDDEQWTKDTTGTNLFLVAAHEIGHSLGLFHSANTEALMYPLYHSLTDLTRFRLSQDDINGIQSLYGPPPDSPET

With `CC1(C)SCCN(S(=O)(=O)c2ccc(-c3cccc([N+](=O)[O-])c3)cc2)[C@H]1C(=O)O` [Example 27, (S)-2,2-Dimethyl-4-(3′-nitro-biphenyl-4-sulfonyl)-thiomorpholine-3-carboxylic acid], the IC50 in assay [1], in assay [2], in assay [3] and in assay [4] was more than 100 µM in each case.

Turning to `CC1(C)SCCN(S(=O)(=O)c2ccc(-c3cccc4ccccc34)cc2)[C@H]1C(=O)O` [Example 28, (S)-2,2-Dimethyl-4-(4-naphthalen-1-yl-benzenesulfonyl)-thiomorpholine-3-carboxylic acid], the half-inhibitory concentration (IC50) in assay [1] was 22.8 µM; in assay [2] it was 2.07 µM; in assay [3] it was 2.2 µM; in assay [4], 2.67 µM.

`CC1(C)SCCN(S(=O)(=O)c2ccc(-c3ccc(Cl)cc3)cc2)[C@H]1C(=O)O` [Example 29, (S)-4-(4′-Chloro-biphenyl-4-sulfonyl)-2,2-dimethyl-thiomorpholine-3-carboxylic acid]: the IC50 in assay [1], in assay [2], in assay [3] and in assay [4] was more than 100 µM each time.

With `CC1(C)SCCN(S(=O)(=O)c2ccc(-c3ccc(C=O)cc3)cc2)[C@H]1C(=O)O` [Example 30, (S)-4-(4′-Formyl-biphenyl-4-sulfonyl)-2,2-dimethyl-thiomorpholine-3-carboxylic acid], the IC50 was found to be 3.6 µM in assay [1], 0.042 µM in assay [2], 0.0154 µM in assay [3] and 0.096 µM in assay [4].

For the compound `Cc1cccc(-c2ccc(S(=O)(=O)N3CCSC(C)(C)[C@@H]3C(=O)O)cc2)c1` [Example 31, (S)-2,2-Dimethyl-4-(3′-methyl-biphenyl-4-sulfonyl)-thiomorpholine-3-carboxylic acid], the concentration for half-maximal inhibition (IC50) in assay [1] was 1.57 µM; in assay [2], more than 100 µM; in assay [3] it was more than 100 µM; in assay [4], more than 100 µM.

With `CC1(C)SCCN(S(=O)(=O)c2ccc(-c3ccc(F)cc3)cc2)[C@H]1C(=O)O` [Example 32, (S)-4-(4′-Fluoro-biphenyl-4-sulfonyl)-2,2-dimethyl-thiomorpholine-3-carboxylic acid], the half-inhibitory concentration (IC50) came out at 4.43 µM in assay [1], 0.133 µM in assay [2], 0.0365 µM in assay [3] and 0.145 µM in assay [4].

As to `CC1(C)SCCN(S(=O)(=O)c2ccc(-c3ccc4c(c3)OCO4)cc2)[C@H]1C(=O)O` [Example 33, (S)-4-(4-1,3-Benzodioxol-5-yl-benzenesulfonyl)-2,2-dimethyl-thiomorpholine-3-carboxylic acid], the IC50 in assay [1] was 3.15 µM; in assay [2], 0.0185 µM; in assay [3], 0.0148 µM; in assay [4], 0.0443 µM.

As for `CC1(C)SCCN(S(=O)(=O)c2ccc(-c3cccc(Cl)c3)cc2)[C@H]1C(=O)O` [Example 34, (S)-4-(3′-Chloro-biphenyl-4-sulfonyl)-2,2-dimethyl-thiomorpholine-3-carboxylic acid], the IC50 amounted to 10.3 µM in assay [1], 0.187 µM in assay [2], 0.0703 µM in assay [3] and 0.243 µM in assay [4].

For the compound `CC1(C)SCCN(S(=O)(=O)c2ccc(-c3cccc(C=O)c3)cc2)[C@H]1C(=O)O` [Example 35, (S)-4-(3′-Formyl-biphenyl-4-sulfonyl)-2,2-dimethyl-thiomorpholine-3-carboxylic acid], the half-inhibitory concentration (IC50) was determined as 0.479 µM in assay [1], 0.035 µM in assay [2], 0.0154 µM in assay [3] and 0.021 µM in assay [4].

On to `CC1(C)SCCN(S(=O)(=O)c2ccc(-c3ccc(F)c(Cl)c3)cc2)[C@H]1C(=O)O` [Example 42, (S)-4-(3′-Chloro-4′-fluoro-biphenyl-4-sulfonyl)-2,2-dimethyl-thiomorpholine-3-carboxylic acid], for which the half-inhibitory concentration (IC50) in assay [1] was 9.15 µM; in assay [2], 0.16 µM; in assay [3] it was 0.0289 µM; in assay [4], 0.113 µM.

As for `CC(C)c1ccc(-c2ccc(S(=O)(=O)N3CCSC(C)(C)[C@@H]3C(=O)O)cc2)cc1` [Example 44, (S)-4-(4′-Isopropyl-biphenyl-4-sulfonyl)-2,2-dimethyl-thiomorpholine-3-carboxylic acid], the IC50 stood at 0.37 µM in assay [1], 0.015 µM in assay [2], 0.0088 µM in assay [3] and 0.02 µM in assay [4].

Turning to `CC(C)(C)c1ccc(-c2ccc(S(=O)(=O)N3CCSC(C)(C)[C@@H]3C(=O)O)cc2)cc1` [Example 49, (S)-4-(4′-tert-Butyl-biphenyl-4-sulfonyl)-2,2-dimethyl-thiomorpholine-3-carboxylic acid], the IC50 in assay [1] stood at 1.5 µM; in assay [2] it was 0.23 µM; in assay [3], 0.039 µM; in assay [4] it was 0.061 µM.

Regarding `CC1(C)SCCN(S(=O)(=O)c2ccc(-c3ccc(Cl)s3)cc2)[C@H]1C(=O)O` [Example 50, (S)-4-[4-(5-Chloro-thiophen-2-yl)-benzenesulfonyl]-2,2-dimethyl-thiomorpholine-3-carboxylic acid], the IC50 in assay [1] was 1.5 µM; in assay [2] it was 0.024 µM; in assay [3], 0.019 µM; in assay [4] it was 0.12 µM.

For `Cc1cc(-c2ccc(S(=O)(=O)N3CCSC(C)(C)[C@@H]3C(=O)O)cc2)ccc1F` [Example 51, (S)-4-(4′-Fluoro-3′-methyl-biphenyl-4-sulfonyl)-2,2-dimethyl-thiomorpholine-3-carboxylic acid], the IC50 turned out to be 1 µM in assay [1], 0.027 µM in assay [2], 0.01 µM in assay [3] and 0.012 µM in assay [4].

In the case of `Cc1ccc(-c2ccc(S(=O)(=O)N3CCSC(C)(C)[C@@H]3C(=O)O)cc2)s1` [Example 52, (S)-2,2-Dimethyl-4-[4-(5-methyl-thiophen-2-yl)-benzenesulfonyl]-thiomorpholine-3-carboxylic acid], the IC50 in assay [1] is 0.52 µM; in assay [2], 0.013 µM; in assay [3], 0.014 µM; in assay [4] it was 0.036 µM.

For the compound `COc1cc(-c2ccc(S(=O)(=O)N3CCSC(C)(C)[C@@H]3C(=O)O)cc2)cc(OC)c1OC` [Example 55, (S)-2,2-Dimethyl-4-(3′,4′,5′-trimethoxy-biphenyl-4-sulfonyl)-thiomorpholine-3-carboxylic acid], the 50% inhibitory concentration (IC50) in assay [1] came out at 59 µM; in assay [2], 8.8 µM; in assay [3] it was 8.9 µM; in assay [4] it was 7.7 µM.

Take `COc1cccc(OC)c1-c1ccc(S(=O)(=O)N2CCSC(C)(C)[C@@H]2C(=O)O)cc1` [Example 60, (S)-4-(2′,6′-Dimethoxy-biphenyl-4-sulfonyl)-2,2-dimethyl-thiomorpholine-3-carboxylic acid]: the figures for the 50% inhibitory concentration (IC50) in assay [2], in assay [3] and in assay [4] were 39 µM, 9.95 µM and 25.5 µM, respectively.

For the compound `CC1(C)SCCN(S(=O)(=O)c2ccc(-c3cccc(C#N)c3)cc2)[C@H]1C(=O)O` [Example 62, (S)-4-(3′-Cyano-biphenyl-4-sulfonyl)-2,2-dimethyl-thiomorpholine-3-carboxylic acid], the concentration for half-maximal inhibition (IC50) in assay [2] was 6.2 µM; in assay [3], 0.83 µM; in assay [4] it was 4.9 µM.

Turning to `CC1(C)SCCN(S(=O)(=O)c2ccc(-c3ccccc3C=O)cc2)[C@H]1C(=O)O` [Example 63, (S)-4-(2′-Formyl-biphenyl-4-sulfonyl)-2,2-dimethyl-thiomorpholine-3-carboxylic acid], the IC50 in assay [2] worked out at 68 µM; in assay [3], 21 µM; in assay [4] it was 62.5 µM.
